This assay deals with USP1 (construct USP1 (I-785, GG670, 671AA)/UAF1 (I-677)-Flag) (Homo sapiens (Human), UniProt O94782, G670A/G671A). The experiment in a line: Ubiquitin-Rhodamine 110 assay for USP1 activity. The following applies: USP1/UAF1 25 pM, Ub-Rh110 25 nM, 30 min preincubation. In kind it is biochemical. An outline of the steps: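 Two formats with the USP1/UAF1 complex and 25 nM ubiquitin-rhodamine 110 in pH 8.0 Tris buffer with calcium, glutathione and detergent. Single-point screening used 10 µM, 100 pM enzyme and 45 min. Inhibition was set against no-enzyme and DMSO wells.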
Sequence of USP1 (construct USP1 (I-785, GG670, 671AA)/UAF1 (I-677)-Flag) (O94782 whole entry G670A/G671A): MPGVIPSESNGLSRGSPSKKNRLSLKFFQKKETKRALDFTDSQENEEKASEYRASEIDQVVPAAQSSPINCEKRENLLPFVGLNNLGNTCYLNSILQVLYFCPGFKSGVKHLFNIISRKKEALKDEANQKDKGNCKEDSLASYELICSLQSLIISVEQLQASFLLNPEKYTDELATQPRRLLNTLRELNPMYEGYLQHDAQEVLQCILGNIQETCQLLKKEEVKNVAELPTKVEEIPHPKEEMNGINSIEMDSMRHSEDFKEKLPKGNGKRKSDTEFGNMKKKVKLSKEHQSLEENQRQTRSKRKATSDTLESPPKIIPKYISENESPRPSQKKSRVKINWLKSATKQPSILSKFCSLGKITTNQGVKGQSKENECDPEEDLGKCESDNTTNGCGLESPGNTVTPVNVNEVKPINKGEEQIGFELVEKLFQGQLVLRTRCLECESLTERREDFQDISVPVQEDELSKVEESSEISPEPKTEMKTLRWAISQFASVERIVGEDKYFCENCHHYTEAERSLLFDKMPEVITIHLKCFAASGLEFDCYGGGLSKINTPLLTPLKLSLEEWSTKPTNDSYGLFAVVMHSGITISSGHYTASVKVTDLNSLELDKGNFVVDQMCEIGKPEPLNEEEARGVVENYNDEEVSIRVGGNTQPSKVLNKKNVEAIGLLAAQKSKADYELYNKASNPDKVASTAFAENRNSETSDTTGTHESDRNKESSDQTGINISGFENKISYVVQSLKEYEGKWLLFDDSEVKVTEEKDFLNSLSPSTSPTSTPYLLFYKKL
Sequence of USP1 (construct USP1 (I-785, GG670, 671AA)/UAF1 (I-677)-Flag) (Q8TAF3 whole entry partner): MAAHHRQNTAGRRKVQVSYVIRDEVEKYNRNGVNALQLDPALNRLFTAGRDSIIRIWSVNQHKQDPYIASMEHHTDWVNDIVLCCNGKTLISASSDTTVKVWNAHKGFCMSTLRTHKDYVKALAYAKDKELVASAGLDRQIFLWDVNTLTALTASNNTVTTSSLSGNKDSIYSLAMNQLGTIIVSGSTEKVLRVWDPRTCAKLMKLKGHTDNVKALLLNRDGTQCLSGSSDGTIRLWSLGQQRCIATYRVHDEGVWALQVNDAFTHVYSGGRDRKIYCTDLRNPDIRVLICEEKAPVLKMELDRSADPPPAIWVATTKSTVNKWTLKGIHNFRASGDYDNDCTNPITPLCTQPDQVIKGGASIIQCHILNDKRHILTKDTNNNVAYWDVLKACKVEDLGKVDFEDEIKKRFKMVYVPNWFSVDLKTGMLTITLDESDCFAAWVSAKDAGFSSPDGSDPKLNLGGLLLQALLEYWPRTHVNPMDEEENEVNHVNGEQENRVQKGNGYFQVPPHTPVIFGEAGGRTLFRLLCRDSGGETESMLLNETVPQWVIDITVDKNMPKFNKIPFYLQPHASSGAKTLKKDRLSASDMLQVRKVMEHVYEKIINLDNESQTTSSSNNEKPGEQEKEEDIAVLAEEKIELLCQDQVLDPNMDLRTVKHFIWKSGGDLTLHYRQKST

The term IC50 denotes the concentration that inhibits the measured activity by half. The molecule `CC(C)c1cc(F)ccc1-c1ncc2c(n1)n(Cc1ccc(-n3cccn3)cc1)c(=O)n2C` [Compound I-10, 9-(4-(1H-pyrazol-1-yl)benzyl)-2-(4-fluoro-2-isopropylphenyl)-7-methyl-7,9-dihydro-8H-purin-8-one] came in with an IC50 of 200 to 2000 nM.
Next, `Cn1cc(C(F)(F)F)nc1-c1ccc(Cn2c(=O)[nH]c3cnc(-c4cccnc4N4CC(F)(F)C4)nc32)cc1` [Compound I-336, 2-(2-(3,3-difluoroazetidin-1-yl)pyridin-3-yl)-9-(4-(1-methyl-4-(trifluoromethyl)-1H-imidazol-2-yl)benzyl)-7,9-dihydro-8H-purin-8-one]: under 50 nM; `CC(C)c1ccccc1-c1ncc2[nH]c(=O)n(Cc3ccc(-n4ccc(C5CCNC5)n4)cc3)c2n1` (stereo not shown) [Compound I-222, 2-(2-isopropylphenyl)-9-(4-(3-(pyrrolidin-3-yl)-1H-pyrazol-1-yl)benzyl)-7,9-dihydro-8H-purin-8-one]: 200 to 2000 nM.
Molecule `CC(C)c1ccccc1-c1ncc2c(n1)n(Cc1ccc(-c3cnnn3C)cc1)c(=O)n2C` [Compound I-285, 2-(2-isopropylphenyl)-7-methyl-9-(4-(1-methyl-1H-1,2,3-triazol-5-yl)benzyl)-7,9-dihydro-8H-purin-8-one] returned a 50% inhibitory concentration (IC50) of 200 to 2000 nM.
Next, `CC(C)c1ccccc1-c1ncc2[nH]c(=O)n(Cc3ccc(C(=O)N(C)Cc4ccc(F)cc4)cc3)c2n1` [Compound I-365, N-(4-fluorobenzyl)-4-((2-(2-isopropylphenyl)-8-oxo-7,8-dihydro-9H-purin-9-yl)methyl)-N-methylbenzamide]: 50 to 200 nM.
The same measure for `CC(C)c1ccccc1-c1ncc2[nH]c(=O)n(Cc3ccc4c(c3)CN(C)C4=O)c2n1` [Compound I-186, 2-(2-isopropylphenyl)-9-((2-methyl-1-oxoisoindolin-5-yl)methyl)-7,9-dihydro-8H-purin-8-one]: 50 to 200 nM; for `COCCO[C@H]1CCN(C(=O)c2ccc(Cn3c(=O)[nH]c4cnc(-c5ccccc5C(C)C)nc43)cc2)C1` [Compound I-384, (S)-2-(2-isopropylphenyl)-9-(4-(3-(2-methoxyethoxy)pyrrolidine-1-carbonyl)benzyl)-7,9-dihydro-8H-purin-8-one]: 200 to 2000 nM.
Next, `CC(C)c1ccccc1-c1ncc2[nH]c(=O)n(Cc3ccc(C(=O)N4CC(O)C4)cc3)c2n1` [Compound I-377, 9-(4-(3-hydroxyazetidine-1-carbonyl)benzyl)-2-(2-isopropylphenyl)-7,9-dihydro-8H-purin-8-one]: over 2000 nM.
On to `[2H]C([2H])([2H])n1cc(C(F)(F)F)nc1-c1ccc(Cn2c(=O)n(C)c3cnc(-c4cccnc4C(C)C)nc32)cc1` [Compound I-131, 2-(2-isopropylpyridin-3-yl)-7-methyl-9-(4-(1-(methyl-d3)-4-(trifluoromethyl)-1H-imidazol-2-yl)benzyl)-7,9-dihydro-8H-purin-8-one], for which the IC50 was under 50 nM.
For `Cc1cc(C(F)(F)F)nn1-c1ccc(Cn2c(=O)[nH]c3cnc(-c4cccnc4C(C)C)nc32)cc1` [Compound I-40, 2-(2-isopropylpyridin-3-yl)-9-(4-(5-methyl-3-(trifluoromethyl)-1H-pyrazol-1-yl)benzyl)-7,9-dihydro-8H-purin-8-one], the IC50 is under 50 nM.
Next, `CC(=O)N1CC(n2cc(C(F)(F)F)nc2-c2ccc(Cn3c(=O)[nH]c4cnc(-c5ccccc5C(C)C)nc43)cc2)C1` [Compound I-476, 9-(4-(1-(1-acetylazetidin-3-yl)-4-(trifluoromethyl)-1H-imidazol-2-yl)benzyl)-2-(2-isopropylphenyl)-7,9-dihydro-8H-purin-8-one]: under 50 nM; `Cc1cccn1-c1ccc(Cn2c(=O)[nH]c3cnc(-c4cccnc4C(C)C)nc32)cc1` [Compound I-54, 2-(2-isopropylpyridin-3-yl)-9-(4-(2-methyl-1H-pyrrol-1-yl)benzyl)-7,9-dihydro-8H-purin-8-one]: 200 to 2000 nM; `CC(C)c1ccccc1-c1ncc2[nH]c(=O)n(Cc3ccc(C(=O)N4CCC(F)(F)CC4)cc3)c2n1` [Compound I-388, 9-(4-(4,4-difluoropiperidine-1-carbonyl)benzyl)-2-(2-isopropylphenyl)-7,9-dihydro-8H-purin-8-one]: 200 to 2000 nM.
Molecule `CCc1ncccc1-c1ncc2c(n1)n(Cc1ccc(-c3nc(C(F)(F)F)cn3C)cc1)c(=O)n2C` [Compound I-61, 2-(2-ethylpyridin-3-yl)-7-methyl-9-(4-(1-methyl-4-(trifluoromethyl)-1H-imidazol-2-yl)benzyl)-7,9-dihydro-8H-purin-8-one] yielded an IC50 of 50 to 200 nM.
The same measure for `Cc1cn(C2COC2)c(-c2ccc(Cn3c(=O)[nH]c4cnc(-c5cccc(F)c5C(C)C)nc43)cc2)n1` [Compound I-202, 2-(3-fluoro-2-isopropylphenyl)-9-(4-(4-methyl-1-(oxetan-3-yl)-1H-imidazol-2-yl)benzyl)-7,9-dihydro-8H-purin-8-one]: under 50 nM; for `Cn1cc(C(F)(F)F)nc1-c1ccc(Cn2c(=O)[nH]c3cnc(-c4cccnc4N4CCCC4)nc32)cc1` [Compound I-325, 9-(4-(1-methyl-4-(trifluoromethyl)-1H-imidazol-2-yl)benzyl)-2-(2-(pyrrolidin-1-yl)pyridin-3-yl)-7,9-dihydro-8H-purin-8-one]: under 50 nM.
The same measure for `CC(C)c1ccccc1-c1ncc2[nH]c(=O)n(Cc3ccc(-n4ccc(C5CCNCC5)n4)cc3)c2n1` [Compound I-431, 2-(2-isopropylphenyl)-9-(4-(3-(piperidin-4-yl)-1H-pyrazol-1-yl)benzyl)-7,9-dihydro-8H-purin-8-one]: 50 to 200 nM; for `Cc1cnnn1-c1ccc(Cn2c(=O)[nH]c3cnc(-c4ccccc4C(C)C)nc32)cc1` [Compound I-185, 2-(2-isopropylphenyl)-9-(4-(5-methyl-1H-1,2,3-triazol-1-yl)benzyl)-7,9-dihydro-8H-purin-8-one]: under 50 nM; for `CC(C)c1ccccc1-c1ncc2[nH]c(=O)n(Cc3ccc(C(=O)N4CC[C@H](O)C4)cc3)c2n1` [Compound I-378, (S)-9-(4-(3-hydroxypyrrolidine-1-carbonyl)benzyl)-2-(2-isopropylphenyl)-7,9-dihydro-8H-purin-8-one]: 200 to 2000 nM.
Next, `CC(C)c1ccccc1-c1ncc2[nH]c(=O)n(Cc3ccc(-c4nccn4C)cc3)c2n1` [Compound I-160, 2-(2-isopropylphenyl)-9-(4-(1-methyl-1H-imidazol-2-yl)benzyl)-7,9-dihydro-8H-purin-8-one]: under 50 nM; `Cn1cc(C(F)(F)F)nc1-c1ccc(Cn2c(=O)[nH]c3cnc(-c4cccnc4NC4CCOCC4)nc32)cc1` [Compound I-321, 9-(4-(1-methyl-4-(trifluoromethyl)-1H-imidazol-2-yl)benzyl)-2-(2-((tetrahydro-2H-pyran-4-yl)amino)pyridin-3-yl)-7,9-dihydro-8H-purin-8-one]: 200 to 2000 nM; `CC(C)c1ccccc1-c1ncc2c(n1)n(Cc1ccc(-c3nc(C(F)(F)F)cn3C3COC3)cc1)c(=O)n2C` [Compound I-110, 2-(2-isopropylphenyl)-7-methyl-9-(4-(1-(oxetan-3-yl)-4-(trifluoromethyl)-1H-imidazol-2-yl)benzyl)-7,9-dihydro-8H-purin-8-one]: under 50 nM.

For the origin of these results see patent US10189841B2, “Purinones as ubiquitin-specific protease 1 inhibitors” (Forma Therapeutics, Inc., priority 2015, dated 2019).
